From PMC10790229 (Journal of medicinal chemistry, 2023)

Tests used:
Type in all cases: cell-based
MT-4 cells = test: Cytotoxicity in uninfected MT-4 cells
HIV-1 IIIB = test: Anti-HIV-1 activity in MT-4 cells; settings: MT-4 cells; for SI IIIB (CC50/EC50): HIV-1 IIIB
HIV-2 ROD = test: Anti-HIV-2 activity in MT-4 cells; settings: HIV-2 ROD; for SI ROD (CC50/EC50): MT-4 cells; for EC50: read-out: EC50 ROD, 50% protection of MT-4 cells against HIV-induced cytotoxicity

Compound | CC50 (MT-4 cells) [µM] | SI IIIB (CC50/EC50) (HIV-1 IIIB) | Ratio IIIB(EC50)/ROD(EC50) (HIV-1 IIIB) | SI ROD (CC50/EC50) (HIV-2 ROD) | EC50 (HIV-2 ROD) [nM]
Nc1ccc(S(=O)(=O)N2CCN(CC(=O)N[C@@H](Cc3ccccc3)c3nc4ccccc4c(=O)n3-c3ccc(S(=O)(=O)N4CCS(=O)(=O)CC4)cc3)C(=O)C2)cc1 [21b1, (S)-2-(4-((4-Aminophenyl)sulfonyl)-2-oxopiperazin-1-yl)-N-(1-(3-(4-((1,1-dioxidothiomorpholino)sulfonyl)phenyl)-4-oxo-3,4-dihydroquinazolin-2-yl)-2-phenylethyl)acetamide] | > 150 | >75.76 | 3.67 | >277.78 | 540 ± 130
Nc1ccc(S(=O)(=O)N2CCN(CC(=O)N[C@@H](Cc3cc(F)cc(F)c3)c3nc4ccccc4c(=O)n3-c3ccc(S(=O)(=O)N4CCS(=O)(=O)CC4)cc3)C(=O)C2)cc1 [21b2, (S)-2-(4-((4-Aminophenyl)sulfonyl)-2-oxopiperazin-1-yl)-N-(2-(3,5-difluorophenyl)-1-(3-(4-((1,1-dioxidothiomorpholino)sulfonyl)-phenyl)-4-oxo-3,4-dihydroquinazolin-2-yl)ethyl)acetamide] | > 144 | >95.42 | 2.52 | >240.38 | 600 ± 150
(S)-2-(4-((4-Aminophenyl)sulfonyl)-2-oxopiperazin-1-yl)-N-(1-(3-(4-(morpholinosulfonyl)phenyl)-4-oxo-3,4-dihydroquinazolin-2-yl)-2-phenylethyl)acetamide [21a1] | > 159 | >1041.67 | 1.50 | >1562.50 | 100 ± 10
(S)-2-(4-((4-Aminophenyl)sulfonyl)-2-oxopiperazin-1-yl)-N-(1-(3-(4-methoxyphenyl)-4-oxo-3,4-dihydroquinazolin-2-yl)-2-phenylethyl)acetamide [12a1] | > 187 | >290.70 | 4.27 | >1250.00 | 150 ± 40
(S)-2-(4-((4-Aminophenyl)sulfonyl)-2-oxopiperazin-1-yl)-N-(1-(3-(4-methoxyphenyl)-7-(methylsulfonyl)-4-oxo-3,4-dihydroquinazolin-2-yl)-2-phenylethyl)acetamide [12e1] | > 168 | >43.71 | 10.97 | >480.77 | 350 ± 30
(S)-2-(4-((4-Aminophenyl)sulfonyl)-2-oxopiperazin-1-yl)-N-(1-(7-chloro-3-(4-methoxyphenyl)-4-oxo-3,4-dihydroquinazolin-2-yl)-2-phenylethyl)acetamide [12c1] | > 178 | >290.70 | 6.10 | >1736.11 | 100 ± 20
(S)-2-(4-((4-Aminophenyl)sulfonyl)-2-oxopiperazin-1-yl)-N-(2-(3,5-difluorophenyl)-1-(3-(4-methoxyphenyl)-7-(methylsulfonyl)-4-oxo-3,4-dihydroquinazolin-2-yl)ethyl)acetamide [12e2] | > 160 | >235.85 | 4.53 | >1041.67 | 150 ± 30
(S)-N-(1-(7-Chloro-3-(4-methoxyphenyl)-4-oxo-3,4-dihydroquinazolin-2-yl)-2-(3,5-difluorophenyl)ethyl)-2-(4-((4-nitrophenyl)sulfonyl)-2-oxopiperazin-1-yl)acetamide [11c2] | > 163 | >277.78 | 1.48 | >403.23 | 400 ± 100
(S)-N-(1-(7-Fluoro-3-(4-methoxyphenyl)-4-oxo-3,4-dihydroquinazolin-2-yl)-2-phenylethyl)-2-(4-((4-nitrophenyl)sulfonyl)-2-oxopiperazin-1-yl)acetamide [11b1] | > 175 | >88.03 | 3.55 | >312.50 | 560 ± 140
